Assay results taken from ChEMBL document CHEMBL1125385, “Novel inhibitors of prolyl 4-hydroxylase. 2. 5-Amide substituted pyridine-2-carboxylic acids” (J Med Chem, 1992).

These molecules were tested on Prolyl 4-hydroxylase (Gallus gallus) (assay: Inhibition of Prolyl 4-hydroxylase activity in cultured embryonic chick tendon cells; NA=Not active).

IC50	SMILES
Not Active	CN(C)c1ccc(C(=O)Nc2ccc(C(=O)O)nc2)cc1
Not Active	COc1ccccc1NC(=O)c1ccc(C(=O)O)nc1
Not Active	O=C(O)c1ccc(NC(=O)c2ccccc2F)cn1
Not Active	O=C(Nc1ccccc1Cl)c1ccc(C(=O)O)nc1
Not Active	COc1ccc(NC(=O)c2ccc(C(=O)O)nc2)c(OC)c1
Not Active	CCOc1ccc(C(=O)Nc2ccc(C(=O)O)nc2)cc1
Not Active	CN(C)c1ccc(NC(=O)c2ccc(C(=O)O)nc2)cc1
Not Active	Cc1ccc(NC(=O)c2ccc(C(=O)O)nc2)cc1
